Test results from BindingDB's records for doi:10.1021/jf050110v (China Pharmaceutical University, 2020).

molecular target: High affinity nerve growth factor receptor (Homo sapiens, UniProt P04629); assay: Inhibition of wild type […] (unknown origin) incubated for 30 mins by caliper mobility shift assay
Sequence (P04629 whole entry): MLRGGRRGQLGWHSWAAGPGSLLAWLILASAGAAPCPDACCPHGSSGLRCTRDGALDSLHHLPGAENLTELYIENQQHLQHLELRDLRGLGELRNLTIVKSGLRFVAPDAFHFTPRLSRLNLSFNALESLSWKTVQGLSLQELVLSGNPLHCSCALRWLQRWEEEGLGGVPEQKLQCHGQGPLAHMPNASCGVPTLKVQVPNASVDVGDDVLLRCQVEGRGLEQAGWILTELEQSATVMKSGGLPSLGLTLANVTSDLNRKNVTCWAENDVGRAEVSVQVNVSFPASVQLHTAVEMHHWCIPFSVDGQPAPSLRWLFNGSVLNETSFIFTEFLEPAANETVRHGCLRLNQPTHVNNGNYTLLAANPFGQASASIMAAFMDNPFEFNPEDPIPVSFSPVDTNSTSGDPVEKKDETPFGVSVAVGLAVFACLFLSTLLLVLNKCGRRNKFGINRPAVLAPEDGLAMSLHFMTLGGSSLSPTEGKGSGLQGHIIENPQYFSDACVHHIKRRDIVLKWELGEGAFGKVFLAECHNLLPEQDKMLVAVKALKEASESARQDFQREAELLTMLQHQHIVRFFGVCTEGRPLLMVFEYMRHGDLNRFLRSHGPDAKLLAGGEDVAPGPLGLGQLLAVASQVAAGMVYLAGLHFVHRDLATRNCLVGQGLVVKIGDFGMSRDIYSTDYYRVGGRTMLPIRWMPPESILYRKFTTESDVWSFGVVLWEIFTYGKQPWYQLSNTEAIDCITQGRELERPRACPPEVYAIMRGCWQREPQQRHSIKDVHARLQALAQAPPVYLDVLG

SMILES	IC50 [nM]
CN(Cc1cccc(F)c1)c1ccn2ncc(C(=O)NC3CCOCC3)c2n1	3.2
O=C(NC1CCOCC1)c1cnn2ccc(NCc3cccc(F)c3)nc12	3.6
O=C(N[C@H]1CC[C@H](O)CC1)c1cnc2ccc(NCc3cccc(F)c3)nn12	2.8
CC(Nc1ccn2ncc(C(=O)N[C@H]3CC[C@H](O)CC3)c2n1)c1cccc(F)c1 (stereo partly specified)	3
CC(Nc1ccn2ncc(C(=O)NC3CCOCC3)c2n1)c1cccc(F)c1 (stereo unspecified)	2.1
CO[C@H]1CC[C@H](NC(=O)c2cnc3ccc(NCc4cccc(F)c4)nn23)CC1	3
O=C(NC1CCOCC1)c1cnc2ccc(NCc3cccc(F)c3)nn12	8.4

Stronger by IC50, values ahead:

IC50 [nM]	SMILES
1.6	O=C(N[C@H]1CC[C@H](O)CC1)c1cnn2ccc(NCc3cccc(F)c3)nc12
1.5	CO[C@H]1CC[C@H](NC(=O)c2cnn3ccc(NCc4cccc(F)c4)nc23)CC1
1.3	CN(Cc1cccc(F)c1)c1ccn2ncc(C(=O)N[C@H]3CC[C@H](O)CC3)c2n1
1.1	CO[C@H]1CC[C@H](NC(=O)c2cnn3ccc(N(C)Cc4cccc(F)c4)nc23)CC1
